What was measured:
[1] = Pharmacokinetic food-effect study, single 20 mg/kg dose, healthy subjects (Example 17); conditions: for AUC / AUC(0-t) / AUC(0-inf) / Cmax / Tmax: human, in vivo, po, 20 mg/kg; for AUC: AUC0, cannabidiol; for Tmax: median (min, max)
Description: An open label, randomized, single-dose, two-period, two-way crossover food-effect study was conducted on healthy subjects. […] Twenty-four (24) subjects were enrolled in the study and each were subjected to the fasted and fed treatment arms in separate periods followed by a 7-day wash-out period. For pharmacokinetic analysis, nominal time and default lambda-z selections were used. All below quantifiable limit values were set to zero and all subjects were included in the analysis.
Data from 13 subjects from the fasted treatment and 24 subject from the fed treatment were included in the pharmacokinetic and statistical analyses.

[2] = test system: psychomotor seizure induced by 6 Hz stimulation; assay: Minimal clonic seizure (6 Hz) psychomotor seizure test; conditions: Anticonvulsant Screening, mice, intraperitoneal
[3] = cannabidiol, single 20 mg/kg oral dose of cannabidiol solution, fasted, mean
[4] = cannabidiol, single 20 mg/kg oral dose of cannabidiol solution, fed, mean

Q: What does the source list for `C=C(C)[C@@H]1CCC(C)=C[C@H]1c1c(O)cc(CCCCC)cc1O` [cannabidiol, (−)-trans-2-p-mentha-1,8-dien-3-yl-5-pentylresorcinol]?
A: AUCextrap [1, 3]: 3.57%; Clast [1, 3]: 0.867 ng/mL; Tlast [1, 3]: 120.01 h; λz [1, 3]: 0.0257 h⁻¹; AUCextrap [1, 4]: 3.84%; Clast [1, 4]: 6.36 ng/mL; Tlast [1, 4]: 120.00 h; λz [1, 4]: 0.0165 h⁻¹; AUC ([1]; single 20 mg/kg oral, fasted, mean ± SD): 0.325 ± 1.17 ng·h/mL; AUC ([1]; single 20 mg/kg oral, fed, mean ± SD): 0.229 ± 0.636 ng·h/mL; AUC(0-t) ([1]; AUC0-0.25, cannabidiol, single 20 mg/kg oral, fasted, mean ± SD): 0.363 ± 1.31 ng·h/mL; AUC(0-t) ([1]; AUC0-0.25, cannabidiol, single 20 mg/kg oral, fed, mean ± SD): 0.498 ± 0.874 ng·h/mL; AUC(0-t) ([1]; AUC0-0.5, cannabidiol, single 20 mg/kg oral, fasted, mean ± SD): 0.584 ± 1.33 ng·h/mL; AUC(0-t) ([1]; AUC0-0.5, cannabidiol, single 20 mg/kg oral, fed, mean ± SD): 2.45 ± 3.38 ng·h/mL; AUC(0-t) ([1]; AUC0-0.75, cannabidiol, single 20 mg/kg oral, fasted, mean ± SD): 1.25 ± 1.34 ng·h/mL; AUC(0-t) ([1]; AUC0-0.75, cannabidiol, single 20 mg/kg oral, fed, mean ± SD): 7.48 ± 11.2 ng·h/mL; AUC(0-t) ([1]; AUC0-1, cannabidiol, single 20 mg/kg oral, fasted, mean ± SD): 1.93 ± 1.62 ng·h/mL; AUC(0-t) ([1]; AUC0-1, cannabidiol, single 20 mg/kg oral, fed, mean ± SD): 21.8 ± 40 ng·h/mL; AUC(0-t) ([1]; AUC0-1.5, cannabidiol, single 20 mg/kg oral, fasted, mean ± SD): 2.79 ± 2.14 ng·h/mL; AUC(0-t) ([1]; AUC0-1.5, cannabidiol, single 20 mg/kg oral, fed, mean ± SD): 128 ± 215 ng·h/mL; AUC(0-t) ([1]; AUC0-2, cannabidiol, single 20 mg/kg oral, fasted, mean ± SD): 4.14 ± 2.75 ng·h/mL; AUC(0-t) ([1]; AUC0-2, cannabidiol, single 20 mg/kg oral, fed, mean ± SD): 269 ± 381 ng·h/mL; AUC(0-t) ([1]; AUC0-2.5, cannabidiol, single 20 mg/kg oral, fasted, mean ± SD): 5.38 ± 4.09 ng·h/mL; AUC(0-t) ([1]; AUC0-2.5, cannabidiol, single 20 mg/kg oral, fed, mean ± SD): 424 ± 547 ng·h/mL; AUC(0-t) ([1]; AUC0-3, cannabidiol, single 20 mg/kg oral, fasted, mean ± SD): 5.88 ± 3.99 ng·h/mL; AUC(0-t) ([1]; AUC0-3, cannabidiol, single 20 mg/kg oral, fed, mean ± SD): 535 ± 675 ng·h/mL; AUC(0-t) ([1]; AUC0-4, cannabidiol, single 20 mg/kg oral, fasted, mean ± SD): 6.62 ± 3.85 ng·h/mL; AUC(0-t) ([1]; AUC0-4, cannabidiol, single 20 mg/kg oral, fed, mean ± SD): 812 ± 874 ng·h/mL; AUC(0-t) ([1]; AUC0-6, cannabidiol, single 20 mg/kg oral, fasted, mean ± SD): 12 ± 9.29 ng·h/mL; AUC(0-t) ([1]; AUC0-6, cannabidiol, single 20 mg/kg oral, fed, mean ± SD): 1090 ± 886 ng·h/mL; AUC(0-t) ([1]; AUC0-8, cannabidiol, single 20 mg/kg oral, fasted, mean ± SD): 22.9 ± 39.3 ng·h/mL; AUC(0-t) ([1]; AUC0-8, cannabidiol, single 20 mg/kg oral, fed, mean ± SD): 819 ± 590 ng·h/mL; AUC(0-t) ([1]; AUC0-12, cannabidiol, single 20 mg/kg oral, fasted, mean ± SD): 14.7 ± 10.2 ng·h/mL; AUC(0-t) ([1]; AUC0-12, cannabidiol, single 20 mg/kg oral, fed, mean ± SD): 372 ± 338 ng·h/mL; AUC(0-t) ([1]; AUC0-16, cannabidiol, single 20 mg/kg oral, fasted, mean ± SD): 9.76 ± 4.79 ng·h/mL; AUC(0-t) ([1]; AUC0-16, cannabidiol, single 20 mg/kg oral, fed, mean ± SD): 112 ± 133 ng·h/mL; AUC(0-t) ([1]; AUC0-24, cannabidiol, single 20 mg/kg oral, fasted, mean ± SD): 5.45 ± 2.76 ng·h/mL; AUC(0-t) ([1]; AUC0-24, cannabidiol, single 20 mg/kg oral, fed, mean ± SD): 34.3 ± 11.7 ng·h/mL; AUC(0-t) ([1]; AUC0-36, cannabidiol, single 20 mg/kg oral, fasted, mean ± SD): 5 ± 3.78 ng·h/mL; AUC(0-t) ([1]; AUC0-36, cannabidiol, single 20 mg/kg oral, fed, mean ± SD): 20.7 ± 5.11 ng·h/mL; AUC(0-t) ([1]; AUC0-48, cannabidiol, single 20 mg/kg oral, fasted, mean ± SD): 2.66 ± 2.4 ng·h/mL; AUC(0-t) ([1]; AUC0-48, cannabidiol, single 20 mg/kg oral, fed, mean ± SD): 15.5 ± 4.31 ng·h/mL; AUC(0-t) ([1]; AUC0-72, cannabidiol, single 20 mg/kg oral, fasted, mean ± SD): 1.73 ± 1.89 ng·h/mL; AUC(0-t) ([1]; AUC0-72, cannabidiol, single 20 mg/kg oral, fed, mean ± SD): 10.1 ± 3.42 ng·h/mL; AUC(0-t) ([1]; AUC0-96, cannabidiol, single 20 mg/kg oral, fasted, mean ± SD): 1.35 ± 1.73 ng·h/mL; AUC(0-t) ([1]; AUC0-96, cannabidiol, single 20 mg/kg oral, fed, mean ± SD): 7.86 ± 2.44 ng·h/mL; AUC(0-t) ([1]; AUC0-120, cannabidiol, single 20 mg/kg oral, fasted, mean ± SD): 0.867 ± 1.34 ng·h/mL; AUC(0-t) ([1]; AUC0-120, cannabidiol, single 20 mg/kg oral, fed, mean ± SD): 6.36 ± 2.24 ng·h/mL; AUC(0-inf) ([1]; AUC0-inf, cannabidiol, single 20 mg/kg oral dose of cannabidiol solution, fasted, mean): 360 ng·h/mL; AUC(0-inf) ([1]; AUC0-inf, cannabidiol, single 20 mg/kg oral dose of cannabidiol solution, fed, mean): 10100 ng·h/mL; AUC(0-t) ([1]; AUC0-t, cannabidiol, single 20 mg/kg oral dose of cannabidiol solution, fasted, mean): 466 ng·h/mL; AUC(0-t) ([1]; AUC0-t, cannabidiol, single 20 mg/kg oral dose of cannabidiol solution, fed, mean): 9650 ng·h/mL; Cmax ([1]; Cmax, cannabidiol, single 20 mg/kg oral dose of cannabidiol solution, fasted, mean): 27.3 ng/mL; Cmax ([1]; Cmax, cannabidiol, single 20 mg/kg oral dose of cannabidiol solution, fed, mean): 1560 ng/mL; Tmax ([1]; cannabidiol, single 20 mg/kg oral dose of cannabidiol solution, fasted): 12 h; Tmax ([1]; cannabidiol, single 20 mg/kg oral dose of cannabidiol solution, fed): 6 h; AUC(0-inf) ([1]; ln(AUC0-inf) Geometric Mean, cannabidiol, 20 mg/kg oral, Fasted, least squares geometric mean, period removed from model): 326 ng·h/mL; AUC(0-inf) ([1]; ln(AUC0-inf) Geometric Mean, cannabidiol, 20 mg/kg oral, Fed, least squares geometric mean, period removed from model): 9580 ng·h/mL; AUC(0-t) ([1]; ln(AUC0-t) Geometric Mean, cannabidiol, 20 mg/kg oral, Fasted, least squares geometric mean): 669 ng·h/mL; AUC(0-t) ([1]; ln(AUC0-t) Geometric Mean, cannabidiol, 20 mg/kg oral, Fed, least squares geometric mean): 9210 ng·h/mL; Cmax ([1]; ln(Cmax) Geometric Mean, cannabidiol, 20 mg/kg oral, Fasted, least squares geometric mean): 44.5 ng/mL; Cmax ([1]; ln(Cmax) Geometric Mean, cannabidiol, 20 mg/kg oral, Fed, least squares geometric mean): 1390 ng/mL; 6 HZ N/F (animals protected/tested) ([2]; 10 mg/kg, 0.5 h, ethanol:polyethoxylated castor oil:PBS): 0/4; 6 HZ N/F (animals protected/tested) ([2]; 10 mg/kg, 0.5 h, methylcellulose): 0/4; 6 HZ N/F (animals protected/tested) ([2]; 10 mg/kg, 1.0 h, ethanol:polyethoxylated castor oil:PBS): 0/4; 6 HZ N/F (animals protected/tested) ([2]; 10 mg/kg, 1.0 h, methylcellulose): 0/4; 6 HZ N/F (animals protected/tested) ([2]; 10 mg/kg, 2.0 h, ethanol:polyethoxylated castor oil:PBS): 0/4; 6 HZ N/F (animals protected/tested) ([2]; 10 mg/kg, 2.0 h, methylcellulose): 0/4; 6 HZ N/F (animals protected/tested) ([2]; 30 mg/kg, 0.5 h, ethanol:polyethoxylated castor oil:PBS): 0/4; 6 HZ N/F (animals protected/tested) ([2]; 30 mg/kg, 0.5 h, methylcellulose): 0/4; 6 HZ N/F (animals protected/tested) ([2]; 30 mg/kg, 1.0 h, ethanol:polyethoxylated castor oil:PBS): 0/4; 6 HZ N/F (animals protected/tested) ([2]; 30 mg/kg, 1.0 h, methylcellulose): 0/4; 6 HZ N/F (animals protected/tested) ([2]; 30 mg/kg, 2.0 h, ethanol:polyethoxylated castor oil:PBS): 0/4; 6 HZ N/F (animals protected/tested) ([2]; 30 mg/kg, 2.0 h, methylcellulose): 0/4
